Results taken from PubChem BioAssay (NCI).
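Following 48 hours of exposure in 96-well plates, responses at five concentrations were used to interpolate endpoints linearly. The concentration for full growth arrest is given as TGI.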

Assays:
Assay in all cases: growth of human tumour cells (NCI), 48 h
CCRF-CEM leukemia = system: CCRF-CEM leukemia
EKVX NSCLC = system: EKVX NSCLC
HCT-116 colon = system: HCT-116 colon
MDA-MB-231 breast = system: MDA-MB-231 breast
MDA-MB-435 = system: MDA-MB-435
OVCAR-4 ovarian = system: OVCAR-4 ovarian
SN12C renal = system: SN12C renal
T-47D breast = system: T-47D breast
UACC-62 melanoma = system: UACC-62 melanoma
A498 renal = system: A498 renal

`Oc1ccc(O)c(CNc2ccccc2)c1` showed a TGI (CCRF-CEM leukemia) greater than 100 µM, a TGI (EKVX NSCLC) of 43.4 µM and a TGI (HCT-116 colon) of 23.9 µM. It also gave a TGI (MDA-MB-231 breast) of 38.4 µM, a TGI (MDA-MB-435) of 29.4 µM and a TGI (OVCAR-4 ovarian) of 28.6 µM. For the same molecule, the TGI (SN12C renal) was 29.2 µM, the TGI (T-47D breast) was 37.9 µM and the TGI (UACC-62 melanoma) was 30.6 µM.
`O=[N+]([O-])c1ccc2c(c1)c(S(=O)(=O)O)cc1nonc12` was tested, and the TGI (A498 renal) was greater than 100 µM, the TGI (EKVX NSCLC) was greater than 100 µM and the TGI (HCT-116 colon) was greater than 100 µM. For the same molecule, the TGI (MDA-MB-231 breast) was greater than 100 µM, the TGI (MDA-MB-435) was greater than 100 µM and the TGI (OVCAR-4 ovarian) was greater than 100 µM. For the same molecule, the TGI (SN12C renal) was greater than 100 µM, the TGI (T-47D breast) was greater than 100 µM and the TGI (UACC-62 melanoma) was greater than 100 µM.
`NC1(C(=O)O)CCCC1` gave a TGI (CCRF-CEM leukemia) greater than 625 µM, a TGI (EKVX NSCLC) greater than 625 µM and a TGI (HCT-116 colon) greater than 625 µM. It also gave a TGI (OVCAR-4 ovarian) greater than 625 µM, a TGI (SN12C renal) greater than 625 µM and a TGI (UACC-62 melanoma) greater than 625 µM.
`C[C@]1(O)O[C@@H]2OCC[C@@H]2C2=C1C(=O)c1ccccc1C2=O` showed a TGI (A498 renal) of 27.1 µM, a TGI (CCRF-CEM leukemia) of 51.2 µM and a TGI (EKVX NSCLC) of 37.1 µM. The TGI (MDA-MB-231 breast) was 49.3 µM, the TGI (MDA-MB-435) was 19.5 µM and the TGI (OVCAR-4 ovarian) was 28.4 µM. The TGI (SN12C renal) was 51.1 µM, the TGI (T-47D breast) was 59.1 µM and the TGI (UACC-62 melanoma) was 39.5 µM.
In the case of `C=C1C(=O)O[C@@H]2[C@H](O)[C@@H](C)[C@@H]3C=CC(=O)[C@@]3(C)[C@H](OC(=O)C=C(C)C)[C@H]12`, the TGI (A498 renal) is reported as 4.65 µM, the TGI (CCRF-CEM leukemia) is reported as 0.461 µM and the TGI (EKVX NSCLC) is reported as 5.5 µM. The TGI (HCT-116 colon) was 1.72 µM, the TGI (OVCAR-4 ovarian) was 4.92 µM and the TGI (SN12C renal) was 2.27 µM. For the same molecule, the TGI (UACC-62 melanoma) was 1.87 µM.
Molecule `COC(=O)[C@H](Cc1ccccc1)NP(=O)(O)OCC1C=CC(n2cc(C)c(=O)[nH]c2=O)O1` (some centres not stated) has a TGI (CCRF-CEM leukemia) greater than 100 µM, a TGI (EKVX NSCLC) greater than 100 µM and a TGI (HCT-116 colon) greater than 100 µM. The TGI (MDA-MB-231 breast) was greater than 100 µM, the TGI (MDA-MB-435) was greater than 100 µM and the TGI (OVCAR-4 ovarian) was greater than 100 µM. It also gave a TGI (SN12C renal) greater than 100 µM, a TGI (T-47D breast) greater than 100 µM and a TGI (UACC-62 melanoma) greater than 100 µM.
Work on `NC(=O)c1nnsc1NC=O` yielded a TGI (A498 renal) greater than 100 µM, a TGI (CCRF-CEM leukemia) greater than 100 µM and a TGI (EKVX NSCLC) greater than 100 µM. It also gave a TGI (HCT-116 colon) greater than 100 µM, a TGI (MDA-MB-231 breast) greater than 100 µM and a TGI (MDA-MB-435) greater than 100 µM. It also gave a TGI (SN12C renal) greater than 100 µM, a TGI (T-47D breast) greater than 100 µM and a TGI (UACC-62 melanoma) greater than 100 µM.
Molecule `O=c1cc(N=Nc2ccc(Cl)cc2)[nH]c(=O)[nH]1` has a TGI (CCRF-CEM leukemia) of 4.94 µM, a TGI (EKVX NSCLC) of 8.5 µM and a TGI (HCT-116 colon) of 3.87 µM. For the same molecule, the TGI (MDA-MB-231 breast) was 8.28 µM, the TGI (MDA-MB-435) was 14 µM and the TGI (OVCAR-4 ovarian) was 9.03 µM. It also gave a TGI (SN12C renal) of 9.45 µM, a TGI (T-47D breast) of 11.9 µM and a TGI (UACC-62 melanoma) of 7.11 µM.
Molecule `O=C1c2ccccc2C(=O)c2c(O)ccc(O)c21` has a TGI (A498 renal) greater than 100 µM, a TGI (CCRF-CEM leukemia) greater than 100 µM and a TGI (EKVX NSCLC) greater than 100 µM. It also gave a TGI (HCT-116 colon) greater than 100 µM, a TGI (OVCAR-4 ovarian) greater than 100 µM and a TGI (SN12C renal) greater than 100 µM. The TGI (UACC-62 melanoma) was greater than 100 µM.
With `O=C1CCCC2=C1CC1=C(CCCC1=O)N2c1ccccc1` the TGI (A498 renal) was greater than 100 µM, the TGI (CCRF-CEM leukemia) was greater than 100 µM and the TGI (EKVX NSCLC) was greater than 100 µM. The TGI (OVCAR-4 ovarian) was greater than 100 µM, the TGI (SN12C renal) was greater than 100 µM and the TGI (UACC-62 melanoma) was greater than 100 µM.
With `CC1CCc2sc3[nH]c(=S)n(-c4ccccc4)c(=O)c3c2C1` (configuration not stated) the TGI (EKVX NSCLC) was greater than 100 µM, the TGI (HCT-116 colon) was greater than 100 µM and the TGI (MDA-MB-231 breast) was greater than 100 µM. The TGI (MDA-MB-435) was greater than 100 µM, the TGI (OVCAR-4 ovarian) was greater than 100 µM and the TGI (SN12C renal) was greater than 100 µM. The TGI (T-47D breast) was greater than 100 µM and the TGI (UACC-62 melanoma) was greater than 100 µM.
`COC(=O)c1cc(C(=CCC[C@H]2CC[C@@]3(C)C(CCC4C3CC[C@@]3(C)C4CC[C@@H]3C(C)CCCC(C)C)C2)c2cc(Cl)c(OC(=O)c3ccccc3)c(C(=O)OC)c2)cc(Cl)c1OC(=O)c1ccccc1` (some centres not stated) was tested, and the TGI (CCRF-CEM leukemia) was greater than 10 µM, the TGI (EKVX NSCLC) was greater than 10 µM and the TGI (HCT-116 colon) was greater than 10 µM. For the same molecule, the TGI (MDA-MB-231 breast) was greater than 10 µM, the TGI (MDA-MB-435) was greater than 10 µM and the TGI (OVCAR-4 ovarian) was greater than 10 µM. For the same molecule, the TGI (SN12C renal) was greater than 10 µM, the TGI (T-47D breast) was greater than 10 µM and the TGI (UACC-62 melanoma) was greater than 10 µM.
